Assay results as given in US20220053796A1, “COMPOSITION FOR SUPPORTING ANIMAL WITH CANCER” (MARS, INCORPORATED, priority 2018, published 2022).
Where a name gives a salt, the structure may show the parent alone. Read-outs that look alike come from different tables or passages of the source.

What was measured:
Assay type in all cases: cell-based, canine
[1] = tested on: D17 cancer cell line; assay: MTT proliferation assay; settings: Canis lupus familiaris
Method: (§1) Cells were plated at a density of 4×10^3 cells per well on 96-well tissue culture-treated flat bottom plates and incubated overnight in complete medium. Cells were treated the following day with DMSO control or extract using a twofold serial dilution for 8 final concentrations ranging from […] to 100 μg mL-1 for 48 h to assess all extracts for potential effectiveness at reducing cellular proliferation. To quantify cellular proliferation, MTT dye assays were performed by adding 30 μL of MTT dye (5 mg mL-1 in phosphate-buffered saline solution) to each well and incubating at 37° C. for 1 h. Media were then aspirated and the cells were solubilized in 200 μL of isopropanol. The optical density of each well was analyzed on a spectrophotometric plate reader (Epoch; Biotek, Winooski, Vt., USA) at a wavelength of 570 nm.
(§2) Synergy between extracts was examined using combinations of two extracts at six concentrations: 0.8, 1.7, 3.1, 6.3, 12.5, or 25 μg mL-1. The percent proliferating cells of control for each treatment was pooled from all experiments and is reported as mean f standard error of the mean.
(§3) Raw data from proliferation assays (optical density of each well) were normalized to the vehicle alone treatment for individual assays, considered to represent 100% proliferating cells (single or combined treatment). The % proliferating cells was then averaged across each replicate. The IC50 for each extract was then calculated across experiments by Probit analysis. The compound interactions were calculated by multiple drug effect analysis using CalcuSyn software (v.2.11; Biosoft, Cambridge, GB, United Kingdom).

[2] = tested on: CMT-12 cancer cell line; assay: MTT proliferation assay; settings: Canis lupus familiaris
Method: as §1, §2, §3

[3] = tested on: CF41.Mg cell line; assay: ATPlite proliferation assay; settings: Canis lupus familiaris, 72 h
Method: (§4) The different cancer cell lines were plated at the optimal number of cells per well in 90 μL of appropriate medium/well in flat-bottom microtitration 96-well plates. Plates were incubated at 37° C. for 24 hours before treatment in drug free culture medium. After a first dilution process, 10 μl of the test substances (single) were added on plate containing cells 24h after plating. Tumor cell lines were incubated for 72 h at 37° C. under 5% CO2 with 9 concentrations of each natural extract in 1:2 dilution steps. Top dose was 100 μg/ml for each plant extract and 1 μM for doxorubicin. Each concentration was tested in triplicates. Dilutions of each test substance as well as distribution to plates containing cells were performed manually. At least 2 independent experiments were performed for each plant extract. Control cells were treated with vehicles alone. […]
(§5) At the end of treatments, the cytotoxic activity of tested substances was evaluated by ATP-Lite assay (Ref. 6016949, Perkin-Elmer, and Batch 69-12172). […] This ATP level is quantified by the luminescence emitted by the firefly luciferase, through an ATP-dependent reaction. […] After, the plate was left for ten minutes in the dark and luminescence was measured as LV (Luminescence Value).

[4] = tested on: HMPOS; assay: ATPlite proliferation assay; settings: Canis lupus familiaris, 72 h
Method: as §4, §5
Chou-Tallalay CI corresponds to the combination indexes calculated using the appropriate algorithms. […]

[5] = tested on: C2 cancer cell line; assay: MTT proliferation assay
Method: as §1, §2, §3

[6] = read-out: chemotherapy IC50 (mass concentration in brackets)

IC50 ([1]; read-out: chemotherapy IC50)	IC50 [1, 6]	IC50 ([2]; read-out: chemotherapy IC50)	IC50 [2, 6]	Molecule	IC50 [3]	IC50 [4]	chemotherapy IC50 (mass concentration in brackets) [5]	IC50 ([5]; read-out: chemotherapy IC50)
500 nM	0.272 µg/mL	300 nM	0.163 µg/mL	COc1cccc2c1C(=O)c1c(O)c3c(c(O)c1C2=O)C[C@@](O)(C(=O)CO)C[C@@H]3O[C@H]1C[C@H](N)[C@H](O)[C@H](C)O1 [doxorubicin hydrochloride]	375 ± 361 nM	11 nM		
				toceranib phosphate			nM (6.2 ng mL^−1)	12.5 nM
